Drawing on patent US10870647B2, “Imidazopyridine derivative, method for preparing same, and pharmaceutical composition containing same as active ingredient for preventing or treating cancer” (DAEGU-GYEONGBUK MEDICAL INNOVATION FOUNDATION, priority 2016, dated 2020), this text covers remaining binding for 3 molecules.

Common to all, as to assay: Kinase selectivity, scanMAX Kinase assay panel (DiscoverX), % control at 1 uM
Format in all cases: binding

Test [1] deals with T1, scanMAX Kinase assay panel (Homo sapiens, UniProt O43318).
T1 construct: purchased DiscoverX
T1 sequence (O43318 1-606): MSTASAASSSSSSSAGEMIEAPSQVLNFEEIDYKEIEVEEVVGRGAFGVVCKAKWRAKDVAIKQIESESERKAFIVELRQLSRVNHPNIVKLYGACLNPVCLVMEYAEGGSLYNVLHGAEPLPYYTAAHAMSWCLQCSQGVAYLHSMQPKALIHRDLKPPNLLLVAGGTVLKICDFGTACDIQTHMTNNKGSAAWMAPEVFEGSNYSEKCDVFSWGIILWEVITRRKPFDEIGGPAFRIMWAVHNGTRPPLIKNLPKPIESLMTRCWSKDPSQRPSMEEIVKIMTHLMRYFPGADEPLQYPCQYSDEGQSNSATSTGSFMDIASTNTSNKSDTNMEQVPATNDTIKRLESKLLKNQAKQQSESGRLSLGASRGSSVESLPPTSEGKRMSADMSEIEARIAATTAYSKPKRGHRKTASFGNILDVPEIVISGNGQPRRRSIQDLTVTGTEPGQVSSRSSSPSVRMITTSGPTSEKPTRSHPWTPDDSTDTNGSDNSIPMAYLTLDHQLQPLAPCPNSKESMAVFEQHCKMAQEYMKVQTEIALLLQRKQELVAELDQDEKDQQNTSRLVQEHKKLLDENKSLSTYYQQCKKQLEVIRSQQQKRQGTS
Conditions: TAK1; 1 uM; read-out: Percent Control (%). The essentials: (§1)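 Each kinase was first exposed to the test compound at 1 uM in DMSO. Signal was then normalised to positive and negative controls to give % control. Finally, any enzyme showing <35% control was judged inhibited.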

Test [2] deals with T2, scanMAX Kinase assay panel (Homo sapiens, UniProt P33981).
T2 construct: purchased DiscoverX
T2 sequence (P33981 1-857): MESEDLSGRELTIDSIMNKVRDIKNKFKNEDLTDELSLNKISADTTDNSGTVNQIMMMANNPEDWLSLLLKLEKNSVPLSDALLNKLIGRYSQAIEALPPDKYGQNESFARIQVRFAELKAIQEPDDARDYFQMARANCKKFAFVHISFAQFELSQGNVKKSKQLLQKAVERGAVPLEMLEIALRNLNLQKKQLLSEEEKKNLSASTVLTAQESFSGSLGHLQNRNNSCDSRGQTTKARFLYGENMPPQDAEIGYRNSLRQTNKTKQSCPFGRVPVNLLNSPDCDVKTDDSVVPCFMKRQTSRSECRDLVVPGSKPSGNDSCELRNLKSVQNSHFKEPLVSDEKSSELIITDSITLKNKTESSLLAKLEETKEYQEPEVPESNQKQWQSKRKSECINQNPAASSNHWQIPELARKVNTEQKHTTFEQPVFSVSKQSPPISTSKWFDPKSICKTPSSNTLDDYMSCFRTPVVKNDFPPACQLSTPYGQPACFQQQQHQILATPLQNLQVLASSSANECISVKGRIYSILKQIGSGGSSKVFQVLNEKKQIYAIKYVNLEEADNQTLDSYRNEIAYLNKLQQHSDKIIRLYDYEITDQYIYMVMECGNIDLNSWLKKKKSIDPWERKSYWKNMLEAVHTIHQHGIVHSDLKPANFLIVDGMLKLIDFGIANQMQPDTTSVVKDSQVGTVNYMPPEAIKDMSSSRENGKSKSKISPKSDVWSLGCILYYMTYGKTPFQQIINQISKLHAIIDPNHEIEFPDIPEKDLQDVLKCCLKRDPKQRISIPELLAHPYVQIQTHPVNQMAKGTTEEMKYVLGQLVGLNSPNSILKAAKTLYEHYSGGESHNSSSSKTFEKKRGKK
To be noted: TTK; 1 uM; read-out: Percent Control (%). The gist of the method:
as §1

The target of test [3] is T3, scanMAX Kinase assay panel (Homo sapiens, UniProt P37173).
T3 construct: purchased DiscoverX
T3 sequence (P37173 23-567): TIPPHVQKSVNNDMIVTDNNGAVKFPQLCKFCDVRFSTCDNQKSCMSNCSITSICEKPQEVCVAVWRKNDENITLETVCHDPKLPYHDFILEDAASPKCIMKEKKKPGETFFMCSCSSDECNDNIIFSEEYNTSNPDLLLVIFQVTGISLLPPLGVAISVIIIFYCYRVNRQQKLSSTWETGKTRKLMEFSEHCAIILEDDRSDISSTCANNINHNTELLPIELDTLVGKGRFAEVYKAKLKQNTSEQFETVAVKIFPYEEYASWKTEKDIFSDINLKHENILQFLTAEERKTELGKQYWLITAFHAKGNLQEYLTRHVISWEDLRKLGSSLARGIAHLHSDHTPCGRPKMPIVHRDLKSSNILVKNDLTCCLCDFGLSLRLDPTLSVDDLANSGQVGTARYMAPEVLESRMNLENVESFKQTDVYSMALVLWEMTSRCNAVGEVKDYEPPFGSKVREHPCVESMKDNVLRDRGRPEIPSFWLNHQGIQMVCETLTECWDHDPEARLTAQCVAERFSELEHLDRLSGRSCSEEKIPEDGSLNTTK
To be noted: TGFBR2; 1 uM; read-out: Percent Control (%). The gist of the method:
as §1

Test [4] has as its target T4, scanMAX Kinase assay panel (Homo sapiens, UniProt P53667).
T4 construct: purchased DiscoverX
Conditions: LIMK1; 1 uM; read-out: Percent Control (%). The gist of the method:
as §1

For test [5], the target named is T5, scanMAX Kinase assay panel (Homo sapiens, UniProt Q8WTQ7).
T5 construct: purchased DiscoverX
T5 sequence (Q8WTQ7 1-553): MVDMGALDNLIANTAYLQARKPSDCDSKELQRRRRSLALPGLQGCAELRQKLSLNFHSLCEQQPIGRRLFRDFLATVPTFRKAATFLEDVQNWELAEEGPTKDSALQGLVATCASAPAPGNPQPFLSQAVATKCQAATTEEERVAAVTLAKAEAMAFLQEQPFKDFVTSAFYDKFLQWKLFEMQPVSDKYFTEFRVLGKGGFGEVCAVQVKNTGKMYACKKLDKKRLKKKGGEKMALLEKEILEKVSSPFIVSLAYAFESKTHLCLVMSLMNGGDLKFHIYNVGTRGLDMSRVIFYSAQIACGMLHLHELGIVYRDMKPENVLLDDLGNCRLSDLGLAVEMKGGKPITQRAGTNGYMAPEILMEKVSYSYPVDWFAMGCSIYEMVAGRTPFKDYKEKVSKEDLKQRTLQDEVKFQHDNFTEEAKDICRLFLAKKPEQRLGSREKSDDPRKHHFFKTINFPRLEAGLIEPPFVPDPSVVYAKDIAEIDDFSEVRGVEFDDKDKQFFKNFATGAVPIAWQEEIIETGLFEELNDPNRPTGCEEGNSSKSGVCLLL
Conditions: GRK7; 1 uM; read-out: Percent Control (%). The gist of the method:
as §1

Structures are written as SMILES.

T4 sequence (P53667 whole entry): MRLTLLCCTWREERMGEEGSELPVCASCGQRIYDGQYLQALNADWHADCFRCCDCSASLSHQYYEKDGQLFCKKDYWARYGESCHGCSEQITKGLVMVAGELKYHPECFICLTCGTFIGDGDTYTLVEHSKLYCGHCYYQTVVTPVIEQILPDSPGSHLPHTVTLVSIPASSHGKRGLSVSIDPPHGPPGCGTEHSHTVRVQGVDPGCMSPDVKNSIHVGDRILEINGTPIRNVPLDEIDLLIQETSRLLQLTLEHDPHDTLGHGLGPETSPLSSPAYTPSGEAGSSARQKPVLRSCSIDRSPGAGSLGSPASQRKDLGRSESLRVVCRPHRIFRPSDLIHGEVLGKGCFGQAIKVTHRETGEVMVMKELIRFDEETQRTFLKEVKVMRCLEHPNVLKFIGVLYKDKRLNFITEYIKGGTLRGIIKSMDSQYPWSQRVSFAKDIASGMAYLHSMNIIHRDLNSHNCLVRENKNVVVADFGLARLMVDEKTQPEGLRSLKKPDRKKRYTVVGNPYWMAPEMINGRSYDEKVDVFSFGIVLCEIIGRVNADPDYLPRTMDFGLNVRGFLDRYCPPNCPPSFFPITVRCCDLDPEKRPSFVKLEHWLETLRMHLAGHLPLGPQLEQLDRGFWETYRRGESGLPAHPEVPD

For the molecule `Cc1ccc(C(=O)Nc2ccc(CN3CCN(C)CC3)c(C(F)(F)F)c2)cc1C#Cc1cnc2c(Nc3cnn(C)c3)cccn12` [Example 1, 4-methyl-3-((8-((1-methyl-1H-pyrazol-4-yl)amino)imidazo[1,2-a]pyridin-3-yl)ethynyl)-N-(4-((4-methylpiperazin-1-yl)methyl)-3-(trifluoromethyl)phenyl)benzamide], the remaining binding at 1 µM in test [1] is 0%; in test [2], 12%; in test [3], 24%; in test [4], 4%; in test [5], 81%.
The like results for `Cc1ccc(NC(=O)C2(C(=O)Nc3ccc(F)cc3)CC2)cc1C#Cc1cnc2c(Nc3cnn(C(C)C)c3)cccn12` [Example 78] were, in that order, 76%, 100%, 100%, 100% and 92%.
Consider `Cc1cn(-c2cc(NC(=O)c3ccc(C)c(C#Cc4cnc5c(Nc6cnn(C)c6)cccn45)c3)cc(C(F)(F)F)c2)cn1` [Example 12, 4-methyl-N-(3-(4-methyl-1H-imidazol-1-yl)-5-(trifluoromethyl)phenyl)-3-((8-((1-methyl-1H-pyrazol-4-yl)amino)imidazo[1,2-a]pyridin-3-yl)ethynyl)benzamide], for which the remaining binding at 1 µM in test [1] came to 14%; in test [2] it was 70%; in test [3] it was 94%; in test [4], 38%; in test [5] it was 100%.
